In patent publication US20250057802A1, “BROAD-SPECTRUM ANTIVIRAL DRUGS” (FRAUNHOFER-GESELLSCHAFT ZUR FÖRDERUNG DER ANGEWANDTEN …, priority 2021, published 2025):

What was measured:
RSV = experiment: in vitro RSV inhibitory assay (virus pre-incubated with compound, HEp-2 cells, infected cells counted); assay type: cell-based, Human orthopneumovirus (RSV); conditions: human respiratory syncytial virus, 10 min; RSV incubated with compound 10 min at 37° C., added to HEp-2 cells, 2 dpi
HEp-2 cells = experiment: in vitro cytotoxicity analysis (CellTiter-Glo Luminescent Cell Viability Assay); assay type: cell-based, human; parameters: unit not given here; conditions: without RSV-infection, 48 h post-treatment
Method: FIG. 1A, FIG. 2A, FIG. 3A, FIG. 4A, FIG. 5A, and FIG. 6A show dose-response curves for identified inhibitors against RSV. RSV was incubated with increasing concentrations of compounds for 10 min at 37° C. before the compound-virus mixtures were added to human epithelial cells (HEp-2). 2 dpi, infection rates were measured by counting infected cells. Vehicle-treated cells were set as the reference at 100% and used to normalize the data. Shown values represent mean±SD (n=3). The IC50 was determined by fitting the data to a dose-response curve using nonlinear regression analysis (GraphPad Prism, version 6.02). FIG. 1B, FIG. 2B, FIG. 3B, FIG. 4B, FIG. 5B, and FIG. 6B show dose-response curves for identified inhibitors (the same as identified at the top of the respective figures) in in vitro cytotoxicity analysis. HEp-2 cells were treated with increasing concentration of compounds without RSV-infection to assess potential cytotoxicity of the compounds. 48 h post-treatment cells were analyzed using CellTiter-Glo® Luminescent Cell Viability Assay (Promega) to determine cell viability rates. Vehicle-treated cells were set as the reference at 100% of viability and used to normalize the data. Shown values represent mean+SD (n=3).

SARS-CoV-2 = SARS-CoV-2 viral inhibition assay on Vero E6 cells; assay type: cell-based; conditions: Severe acute respiratory syndrome coronavirus 2, Vero C1008, virus incubated with compound 10 min at 37° C., 27 hours post-infection
stability in solution = assay type: physicochemical; conditions: 500 μM in DMSO/PBS (5:95 v/v); room temperature or 37° C.; versus 4,5-DCQA (reference)

SMILES	IC50 (RSV) [nM]	Cytotoxic concentration on HEp-2 cells (HEp-2 cells)	IC50 (SARS-CoV-2) [nM]	stability in solution (stability in solution)
O=C(NCCN(CCNC(=O)c1cc(O)c(O)c(O)c1)C(=O)c1cc(O)c(O)c(O)c1)c1cc(O)c(O)c(O)c1 [Compound 17, 3,4,5-trihydroxy-N-[2-[(3,4,5-trihydroxybenzoyl)-[2-[(3,4,5-trihydroxybenzoyl)-amino]-ethyl]amino]ethyl]benzamide]	155	36216		
CC(CNC(=O)c1ccc(O)cc1)(CNC(=O)c1ccc(O)cc1)CNC(=O)c1ccc(O)cc1 [Compound 19, 4-hydroxy-N-[3-[(4-hydroxybenzoyl)amino]-2-[[(4-hydroxybenzoyl)amino]methyl]-2-methyl-propyl]benzamide]		>80000		
CC(CNC(=O)c1cccc(O)c1)(CNC(=O)c1cccc(O)c1)CNC(=O)c1cccc(O)c1 [Compound 20, 3-hydroxy-N-[3-[(3-hydroxybenzoyl)amino]-2-[[(3-hydroxybenzoyl)amino]methyl]-2-methyl-propyl]benzamide]		76260		
O=C(OCCOCCOC(=O)c1cc(O)c(O)c(O)c1)c1cc(O)c(O)c(O)c1 [Compound 5, 2-[2-(3,4,5-trihydroxybenzoyl)oxyethoxy]ethyl 3,4,5-trihydroxybenzoate]	9330	638066		
CC(COC(=O)c1ccccc1)(COC(=O)c1ccccc1)COC(=O)c1cc(O)c(O)c(O)c1 [Compound 13, [3-benzoyloxy-2-(benzoyloxymethyl)-2-methyl-propyl]3,4,5-trihydroxybenzoate]	480	13042		
CC(CNC(=O)c1cccc(O)c1O)(CNC(=O)c1cccc(O)c1O)CNC(=O)c1cccc(O)c1O [Compound 24, N-[3-[(2,3-dihydroxybenzoyl)amino]-2-[[(2,3-dihydroxybenzoyl)amino]methyl]-2-methyl-propyl]-2,3-dihydroxy-benzamide]		5822.5		
O=C(/C=C/c1ccc(O)c(O)c1)O[C@@H]1[C@H](O)C[C@@](O)(C(=O)O)C[C@H]1OC(=O)/C=C/c1ccc(O)c(O)c1 [4,5-DCQA, reference compound]	1090	>80000	218	
CC(CNC(=O)c1ccc(O)c(O)c1)(CNC(=O)c1ccc(O)c(O)c1)CNC(=O)c1ccc(O)c(O)c1 [Compound 23, N-[3-[(3,4-dihydroxybenzoyl)amino]-2-[[(3,4-dihydroxybenzoyl)amino]methyl]-2-methyl-propyl]-3,4-dihydroxy-benzamide]	35.7	>80000	26	improved stability
O=C(OCC(COC(=O)c1cc(O)c(O)c(O)c1)COC(=O)c1cc(O)c(O)c(O)c1)c1cc(O)c(O)c(O)c1 [Compound 10, [3-(3,4,5-trihydroxybenzoyl)oxy-2-[(3,4,5-trihydroxybenzoyl)oxymethyl]propyl]3,4,5-trihydroxybenzoate]	47.2	75145		
CC(CNC(=O)c1cc(O)c(O)c(O)c1)(CNC(=O)c1cc(O)c(O)c(O)c1)CNC(=O)c1cc(O)c(O)c(O)c1 [Compound 18, 3,4,5-trihydroxy-N-[2-methyl-3-[(3,4,5-trihydroxybenzoyl)amino]-2-[[(3,4,5-trihydroxy-benzoyl)amino]methyl]propyl]benzamide]	59.5	>80000		
O=C(OCCCOC(=O)c1cc(O)c(O)c(O)c1)c1cc(O)c(O)c(O)c1 [Compound 1, 3-(3,4,5-trihydroxybenzoyl)oxypropyl 3,4,5-trihydroxybenzoate]	129	72737		
O=C(NCCCCCNC(=O)c1cc(O)c(O)c(O)c1)c1cc(O)c(O)c(O)c1 [Compound 15, 3,4,5-trihydroxy-N-[5-[(3,4,5-trihydroxybenzoyl)amino]pentyl]benzamide]	408	45401		
O=C(OCCCCCOC(=O)c1cc(O)c(O)c(O)c1)c1cc(O)c(O)c(O)c1 [Compound 2, 5-(3,4,5-trihydroxybenzoyl)oxypentyl 3,4,5-trihydroxybenzoate]	4960	>80000		
CC(COC(=O)c1cc(O)c(O)c(O)c1)(COC(=O)c1cc(O)c(O)c(O)c1)COC(=O)c1cc(O)c(O)c(O)c1 [Compound 11, [2-methyl-3-(3,4,5-trihydroxybenzoyl)oxy-2-[(3,4,5-trihydroxybenzoyl)oxymethyl]-propyl]3,4,5-trihydroxybenzoate]	36.7	47303		
CC(COC(=O)c1ccccc1)(COC(=O)c1cc(O)c(O)c(O)c1)COC(=O)c1cc(O)c(O)c(O)c1 [Compound 12, [2-(benzoyloxymethyl)-2-methyl-3-(3,4,5-trihydroxybenzoyl)oxy-propyl]3,4,5-trihydroxybenzoate]	105	34098.5		
O=C(O[C@@H]1CCC[C@H](OC(=O)c2cc(O)c(O)c(O)c2)C1)c1cc(O)c(O)c(O)c1 [Compound 6, [(1R,3S)-3-(3,4,5-trihydroxybenzoyl)oxycyclohexyl]3,4,5-trihydroxybenzoate]	165	61709		
CC(C)(COC(=O)c1cc(O)c(O)c(O)c1)COC(=O)c1cc(O)c(O)c(O)c1 [Compound 4, [2,2-dimethyl-3-(3,4,5-trihydroxybenzoyl)oxy-propyl]3,4,5-trihydroxybenzoate]	162	63163		
O=C(NCCCNC(=O)c1cc(O)c(O)c(O)c1)c1cc(O)c(O)c(O)c1 [Compound 14, 3,4,5-trihydroxy-N-[3-[(3,4,5-trihydroxybenzoyl)amino]propyl]benzamide]	367	15677		
O=C(NCCCCCCCCCCNC(=O)c1cc(O)c(O)c(O)c1)c1cc(O)c(O)c(O)c1 [Compound 16, 3,4,5-trihydroxy-N-[10-[(3,4,5-trihydroxybenzoyl)amino]decyl]benzamide]	767	>80000		
O=C(OCCCCCCCCOC(=O)c1cc(O)c(O)c(O)c1)c1cc(O)c(O)c(O)c1 [Compound 3, 8-(3,4,5-trihydroxybenzoyl)oxyoctyl 3,4,5-trihydroxybenzoate]	145	9197		
O=C(OCC(COC(=O)c1cc(O)c(O)c(O)c1)OC(=O)c1cc(O)c(O)c(O)c1)c1cc(O)c(O)c(O)c1 [Compound 9, 2,3-bis[(3,4,5-trihydroxybenzoyl)oxy]propyl 3,4,5-trihydroxybenzoate]	55.5	49099.5		
NC(COC(=O)c1cc(O)c(O)c(O)c1)COC(=O)c1cc(O)c(O)c(O)c1 [Compound 8, [2-amino-3-(3,4,5-trihydroxybenzoyl)oxy-propyl]3,4,5-trihydroxybenzoate]	87.7	66234		
O=C(OCC(O)COC(=O)c1cc(O)c(O)c(O)c1)c1cc(O)c(O)c(O)c1 [Compound 7, [2-hydroxy-3-(3,4,5-trihydroxybenzoyl)oxy-propyl]3,4,5-trihydroxybenzoate]	339	>80000		
CC(CNC(=O)c1ccc2c(c1)OCO2)(CNC(=O)c1ccc2c(c1)OCO2)CNC(=O)c1ccc2c(c1)OCO2 [Compound 21, N-[3-(1,3-benzodioxole-5-carbonylamino)-2-[(1,3-benzodioxole-5-carbonylamino)-methyl]-2-methyl-propyl]-1,3-benzodioxole-5-carboxamide]		>80000		
CC(CNC(=O)c1ccc(O)cc1O)(CNC(=O)c1ccc(O)cc1O)CNC(=O)c1ccc(O)cc1O [Compound 22, N-[3-[(2,4-dihydroxybenzoyl)amino]-2-[[(2,4-dihydroxybenzoyl)amino]methyl]-2-methyl-propyl]-2,4-dihydroxy-benzamide]		17473	75.1	
